Experimental data published in PMC4821887, “Identification of chemicals that mimic transcriptional changes associated with autism, brain aging and neurodegeneration” (Nature Communications, 2016).
Like-named read-outs stand apart in the source and are kept apart here.

Test system: mouse cortical neuron cultures
[1] = 10 µM chemical, mouse cortical neuron cultures

Compound	% Dead cells (vehicle subtracted) [%]	also measured
Oc1ccc(C(c2ccc(O)cc2)C(Cl)(Cl)Cl)cc1	1.986	–
O=C(O)CCCOc1ccc(Cl)cc1Cl	-0.3394	–
CCCOC(=O)c1ccc(C(=O)OCCC)nc1	-2.999	–
CSC(=O)c1cccc2nnsc12	-0.1497	–
Clc1nc(Cl)nc(Nc2ccccc2Cl)n1	-1.572	–
CCNc1nc(N)nc(Cl)n1	1.813	–
CC(C)(c1ccc(O)cc1)c1ccc(O)cc1.CC(C)(c1ccc(O)cc1)c1ccc(O)cc1	0.9627	–
N#Cc1cc(Br)c(O)c(Br)c1	-1.631	–
CC1=C(C(=O)Nc2ccccc2)SCCO1	3.189	–
O=C(O)c1nc(Cl)ccc1Cl	-1.907	–
CC(Oc1ccc(Cl)cc1Cl)C(=O)O (stereo not drawn)	-0.3394	–
CCCCOC(=O)[C@@H](C)Oc1ccc(Oc2ccc(C(F)(F)F)cn2)cc1	0.5693	–
Cc1cnc(C2=NC(C)(C(C)C)C(=O)N2)c(C(=O)O)c1 (stereo not drawn)	-0.5785	–
CCCCC(CC)CN1C(=O)C2C3C=CC(C3)C2C1=O (stereo not drawn)	-0.09059	–
CN=C=S	3.139	–
COC(=O)C=C(C)OP(=O)(OC)OC	-2.439	–
CCCCOC(=O)c1ccccc1C(=O)O	5.2539	–
CNC(=O)/C=C(\C)OP(=O)(OC)OC	-1.862	–
O=C(O)C(F)(F)C(F)(F)C(F)(F)C(F)(F)C(F)(F)C(F)(F)C(F)(F)F	-2.482	–
CCCCC(CC)COC(=O)c1ccccc1C(=O)O (stereo not drawn)	–	% Dead cells (vehicle subtracted) [1]: -0.8176%
COc1nc(NC(C)C)nc(NC(C)C)n1	-1.14	–
CC(C)Nc1nc(Cl)nc(NC(C)C)n1	0.5652	–
CC1=NNC(=O)N(/N=C/c2cccnc2)C1	-2.3223	–
N#CSCSc1nc2ccccc2s1	-1.603	–

Compound	% Dead cells (vehicle subtracted) [%]	also measured
Cc1c(COC(=O)[C@@H]2[C@H](/C=C(\Cl)C(F)(F)F)C2(C)C)cccc1-c1ccccc1 (racemic) [Bifenthrin]	0.2358	–
Cc1ccccc1CO[C@@H]1C[C@@]2(C(C)C)CC[C@]1(C)O2 (racemic) [Cinmethylin]	-0.5547	–
CC(C)(C)[C@@H](O)[C@@H](Cc1ccc(Cl)cc1)n1cncn1 (racemic) [Paclobutrazol]	–	% Dead cells (vehicle subtracted) (mouse, 24 h, 10 µM): -2.562%
COP(=O)(NC(C)=O)SC (stereo not drawn) [Acephate]	-1.8111	–
C/C(=N\C#N)N(C)Cc1ccc(Cl)nc1 [Acetamiprid]	2.983	–
CCOCN(C(=O)CCl)c1c(C)cccc1CC [Acetochlor]	–	% Dead cells (vehicle subtracted) (mouse, 24 h, 10 µM): 2.3535%
O=C(O)c1cc(Oc2ccc(C(F)(F)F)cc2Cl)ccc1[N+](=O)[O-] [Acifluorfen]	3.873	–
CCc1cccc(CC)c1N(COC)C(=O)CCl [Alachlor]	3.545	–
CNC(=O)O/N=C/C(C)(C)SC [Aldicarb]	-0.4371	–
CCNc1nc(NC(C)C)nc(SC)n1 [Ametryn]	–	% Dead cells (vehicle subtracted) (mouse, 24 h, 10 µM): 0.09019%
Cc1ccc(/N=C/N(C)/C=N/c2ccc(C)cc2C)c(C)c1 [Amitraz]	0.3334	–
COC(=O)NS(=O)(=O)c1ccc(N)cc1 [Asulam]	–	% Dead cells (vehicle subtracted) (mouse, 24 h, 10 µM): 1.255%
COP(=O)(OC)SCn1c(=O)oc2cc(Cl)cnc21 [Azamethiphos]	-0.5762	–
COP(=S)(OC)SCn1nnc2ccccc2c1=O [Azinphos-methyl]	-0.9211	–
CNC(=O)Oc1cccc2c1OC(C)(C)O2 [Bendiocarb]	9.256	–
CCCCN(CC)c1c([N+](=O)[O-])cc(C(F)(F)F)cc1[N+](=O)[O-] [Benfluralin [Benefin]]	-1.412	–
CCCCNC(=O)n1c(NC(=O)OC)nc2ccccc21 [Benomyl]	–	% Dead cells (vehicle subtracted) (mouse, 24 h, 10 µM): 1.032%
COC(=O)c1ccccc1CS(=O)(=O)NC(=O)Nc1nc(OC)cc(OC)n1 [Bensulfuron-methyl]	–	% Dead cells (vehicle subtracted) (mouse, 24 h, 10 µM): -2.606%
CC(C)N1C(=O)c2ccccc2NS1(=O)=O [Bentazone]	-0.5905	–
COc1ccc(-c2ccccc2)cc1NNC(=O)OC(C)C [Bifenazate]	–	% Dead cells (vehicle subtracted) (mouse, 24 h, 10 µM): 0.1333%
O=C(Nc1ccccc1-c1ccc(Cl)cc1)c1cccnc1Cl [Boscalid]	–	% Dead cells (vehicle subtracted) (mouse, 24 h, 10 µM): -4.045%
CCC(C)n1c(=O)[nH]c(C)c(Br)c1=O (stereo not drawn) [Bromacil]	5.5524	–
CC(C)N1C(=O)N(c2ccccc2)CS/C1=N\C(C)(C)C [Buprofezin]	–	% Dead cells (vehicle subtracted) (mouse, 24 h, 10 µM): -1.5902%
CCCCOCN(C(=O)CCl)c1c(CC)cccc1CC [Butachlor]	–	% Dead cells (vehicle subtracted) (mouse, 24 h, 10 µM): 0.2625%

Compound	% Dead cells (vehicle subtracted) [%]	also measured
C=CCOC(=O)C(C)(C)OC(=O)c1cc(-n2c(=O)cc(C(F)(F)F)n(C)c2=O)ccc1Cl [Butafenacil]	–	% Dead cells (vehicle subtracted) (mouse, 24 h, 10 µM): -4.681%
CCC(C)Nc1c([N+](=O)[O-])cc(C(C)(C)C)cc1[N+](=O)[O-] (stereo not drawn) [Butralin]	–	% Dead cells (vehicle subtracted) (mouse, 24 h, 10 µM): 4.6194%
CCSC(=O)N(CC(C)C)CC(C)C [Butylate]	–	% Dead cells (vehicle subtracted) [1]: 1.861%
O=C1C2CC=CCC2C(=O)N1SC(Cl)(Cl)Cl (stereo not drawn) [Captan]	2.374	–
CCOC(=O)C(Cl)Cc1cc(-n2nc(C)n(C(F)F)c2=O)c(F)cc1Cl (stereo not drawn) [Carfentrazone-ethyl]	9.785	–
CCOP(=S)(OCC)OC(Cl)C(Cl)(Cl)Cl (stereo not drawn) [Chlorethoxyfos]	0.5415	–
COc1cc(Cl)c(OC)cc1Cl [Chloroneb]	-0.9422	–
CC(C)OC(=O)Nc1cccc(Cl)c1 [Chlorpropham]	–	% Dead cells (vehicle subtracted) (mouse, 24 h, 10 µM): -1.179%
COP(=S)(OC)Oc1nc(Cl)c(Cl)cc1Cl [Chlorpyrifos-methyl]	-0.3201	–
C#CCOC(=O)[C@@H](C)Oc1ccc(Oc2ncc(Cl)cc2F)cc1 [Clodinafop-propargyl]	–	% Dead cells (vehicle subtracted) (mouse, 24 h, 10 µM): -2.625%
Clc1ccccc1-c1nnc(-c2ccccc2Cl)nn1 [Clofentezine]	0.4977	–
CC1(C)CON(Cc2ccccc2Cl)C1=O [Clomazone]	-3.452	–
CC(Oc1cccc(Cl)c1)C(=O)O (stereo not drawn) [Cloprop]	-3.007	–
NCCO.O=C(O)c1nc(Cl)ccc1Cl [Clopyralid-olamine]	0.5713	–
Oc1ccc(Cl)cc1Cc1ccccc1 [Clorophene]	2.359	–
CN/C(=N\[N+](=O)[O-])NCc1cnc(Cl)s1 [Clothianidin]	-2.188	–
CCOP(=S)(OCC)Oc1ccc2c(C)c(Cl)c(=O)oc2c1 [Coumaphos]	0.01959	–
N#CN [Cyanamide]	0.2955	–
CCNc1nc(Cl)nc(NC(C)(C)C#N)n1 [Cyanazine]	0.5036	–
Cc1ccc(-c2c(Cl)nc(C#N)n2S(=O)(=O)N(C)C)cc1 [Cyazofamid]	–	% Dead cells (vehicle subtracted) (mouse, 24 h, 10 µM): -1.678%
O=C(O)C1(C(=O)Nc2ccc(Cl)cc2Cl)CC1 [Cyclanilide]	0.6928	–
CCSC(=O)N(CC)C1CCCCC1 [Cycloate]	–	% Dead cells (vehicle subtracted) (mouse, 24 h, 10 µM): 2.452%
CC1(C)C(C=C(Cl)Cl)C1C(=O)OC(C#N)c1ccc(F)c(Oc2ccccc2)c1 (stereo not drawn) [Cyfluthrin (Baythroid)]	-3.677	–
CCCCOC(=O)[C@@H](C)Oc1ccc(Oc2ccc(C#N)cc2F)cc1 [Cyhalofop-butyl]	0.4476	–

Compound	% Dead cells (vehicle subtracted) [%]	also measured
CCNC(=O)NC(=O)/C(C#N)=N/OC [Cymoxanil]	3.586	–
CC1(C)C(C=C(Cl)Cl)C1C(=O)OC(C#N)c1cccc(Oc2ccccc2)c1 (stereo not drawn) [Cypermethrin]	–	% Dead cells (vehicle subtracted) (mouse, 24 h, 10 µM): -3.377%
CC(C1CC1)C(O)(Cn1cncn1)c1ccc(Cl)cc1 (stereo not drawn) [Cyproconazole]	–	% Dead cells (vehicle subtracted) (mouse, 24 h, 0.1 µM): 3.058%; % Dead cells (vehicle subtracted) (mouse, 24 h, 1 µM): 5.165%; % Dead cells (vehicle subtracted) (mouse, 24 h, 10 µM): 6.321%
Cc1cc(C2CC2)nc(Nc2ccccc2)n1 [Cyprodinil]	–	% Dead cells (vehicle subtracted) (mouse, 24 h, 10 µM): -6.385%
Nc1nc(N)nc(NC2CC2)n1 [Cyromazine]	–	% Dead cells (vehicle subtracted) (mouse, 24 h, 10 µM): -4.3436%
CN(C)NC(=O)CCC(=O)O [Daminozide]	-0.7321	–
CCOP(=S)(OCC)Oc1cc(C)nc(C(C)C)n1 [Diazinon]	0.1738	–
CCOP(=O)(OCC)Oc1cc(C)nc(C(C)C)n1 [Diazoxon]	-0.938	–
CCCCOC(=O)c1ccccc1C(=O)OCCCC [Dibutyl phthalate]	–	% Dead cells (vehicle subtracted) (mouse, 24 h, 10 µM): -2.722%
N#Cc1c(Cl)cccc1Cl [Dichlobenil]	–	% Dead cells (vehicle subtracted) (mouse, 24 h, 10 µM): 8.856%
COP(=O)(OC)OC=C(Cl)Cl [Dichlorvos]	0.4159	–
COC(=O)C(C)Oc1ccc(Oc2ccc(Cl)cc2Cl)cc1 (stereo not drawn) [Diclofop-methyl]	-2.902	–
Nc1c(Cl)cc([N+](=O)[O-])cc1Cl [Dicloran]	-0.1169	–
CCOc1nc(F)cc2nc(S(=O)(=O)Nc3c(Cl)cccc3Cl)nn12 [Diclosulam]	0.003204	–
OC(c1ccc(Cl)cc1)(c1ccc(Cl)cc1)C(Cl)(Cl)Cl [Dicofol]	–	% Dead cells (vehicle subtracted) (mouse, 24 h, 10 µM): 1.054%
COP(=O)(OC)O/C(C)=C/C(=O)N(C)C [Dicrotophos]	-0.1238	–
CCCCC(CC)COC(=O)c1ccccc1C(=O)OCC(CC)CCCC (stereo not drawn) [Diethylhexyl phthalate (DEHP)]	-0.2848	–
CC1COC(Cn2cncn2)(c2ccc(Oc3ccc(Cl)cc3)cc2Cl)O1 (stereo not drawn) [Difenoconazole]	-2.028	–
COCC(C)N(C(=O)CCl)c1c(C)csc1C (stereo not drawn) [Dimethenamid]	–	% Dead cells (vehicle subtracted) (mouse, 24 h, 10 µM): -0.353%
CNC(=O)CSP(=S)(OC)OC [Dimethoate]	-3.6	–
COc1ccc(C(=CC(=O)N2CCOCC2)c2ccc(Cl)cc2)cc1OC [Dimethomorph]	–	% Dead cells (vehicle subtracted) (mouse, 24 h, 10 µM): -1.666%
COC(=O)c1ccccc1C(=O)OC [Dimethyl phthalate]	1.872	–
